Data published in US12171757B2, “Crenolanib for treating FLT3 mutated proliferative disorders” (Arog Pharmaceuticals, Inc., priority 2013, dated 2024).

Legend:
[1] = tested on: relapsed/refractory AML patient with a de novo FLT3-ITD mutation and acquired FLT3-D835 TKD mutation; assay: Crenolanib besylate single agent therapy, Example 1 patient, clinical trial NCT01522469; type: in vivo, human
From the text: (§1) Response criteria for AML clinical trials are adapted from the International Working Group for AML. See Cheson et al. Revised Recommendations of the International Working Group for Diagnosis, Standardization of Response Criteria, Treatment Outcomes, and Reporting Standards for Therapeutic Trials in Acute Myeloid Leukemia. J Clin Oncol. 2003; 21: 4642-4649. Responders are patients who obtain a Complete Response (CR), Complete Response with incomplete blood count recovery (CRi), or Partial Remission (PR). Briefly, criteria are as follows:
To overcome resistance to prior therapy, the patient was provided single agent oral crenolanib besylate on a clinical trial for relapsed or refractory AML patients with a FLT3-D835 TKD mutation (NCT01522469). […] The patient began treatment with 100 mg of oral crenolanib three times daily. […] The patient discontinued crenolanib therapy and underwent allogeneic stem cell transplant.

[2] = tested on: relapsed/refractory AML patient with a de novo FLT3-ITD mutation and acquired FLT3-D835 TKD mutation; assay: Crenolanib besylate single agent therapy, Example 2 patient, clinical trial NCT01522469; type: in vivo, human
From the text: as §1
To overcome resistance to prior therapy with FLT3 tyrosine kinase inhibitor X, the patient was provided single agent oral crenolanib besylate on a clinical trial for relapsed or refractory AML patients with a FLT3-D835 mutation (NCT01522469). At baseline, the patient presented with 91% bone marrow blasts and 4800 units/uL of absolute circulating peripheral blood blasts. The patient began treatment with 80 mg of oral crenolanib three times daily. […] The patient discontinued crenolanib therapy and underwent allogeneic stem cell transplant.

[3] = tested on: heavily pretreated relapsed/refractory AML patient with acquired FLT3-ITD and FLT3-D835 TKD mutations; assay: Crenolanib besylate monotherapy, Example 3 patient, phase II clinical trial NCT01522469; type: in vivo, human
From the text: as §1
A 59.2 kg person diagnosed with AML December 2011. Following initial diagnosis the patient was treated with 7+3 induction chemotherapy, followed by consolidation therapy with 1 cycle of high dose cytarabine. Five months later the patient underwent autologous stem cell transplantation with etoposide and busulfan conditioning. […] The patient was treated with 100 mg of crenolanib besylate three times daily. […] The patient discontinued crenolanib therapy to undergo allogeneic stem cell transplantation conditioning. The patient discontinued crenolanib therapy and underwent allogeneic stem cell transplant.

[4] = tested on: relapsed/refractory AML patient with an acquired FLT3-ITD mutation; assay: Crenolanib besylate monotherapy, Example 4 patient, phase II clinical trial NCT01522469; type: in vivo, human
From the text: as §1
A 60.6 kg person diagnosed with FLT3-negative AML January 2012. […] The patient was then treated with 4 cycles of high dose cytarabine consolidation therapy. […] The patient was treated with 100 mg of crenolanib besylate three times daily. […] The patient discontinued crenolanib therapy and underwent allogeneic stem cell transplant.

[5] = tested on: refractory or relapsed acute leukemias; details: patients with refractory or relapsed acute leukemias; cited from earlier work
[6] = day 21 on study drug, 80 mg oral three times daily
[7] = day 15 on study drug, 100 mg three times daily
[8] = day 29 on study drug, 100 mg three times daily
[9] = day 33 on study drug, 100 mg three times daily
[10] = day 58 on study drug, 100 mg three times daily

Structure (SMILES): CC1(COc2ccc3c(c2)ncn3-c2ccc3cccc(N4CCC(N)CC4)c3n2)COC1 [Crenolanib, 4-Piperidinamine, 1-[2-[5-[(3-methyl-3-oxetanyl)methoxy]-1H-benzimidazol-1-yl]-8-quinolinyl]]
- Clinical response (bone marrow biopsy) ([1]; after 29 days of therapy, 100 mg, decreased to 80 mg, oral three times daily): complete remission (CR)
- Bone Marrow Blast (%) ([1]; day 0 on study drug (baseline)): 75%
- Bone Marrow Blast (%) ([1]; day 29 on study drug, 100 mg, decreased to 80 mg, oral three times daily): 0%
- Bone Marrow Blast (%) ([1]; day 57 on study drug, 100 mg, decreased to 80 mg, oral three times daily): 1%
- Days of therapy to complete clearance of malignant leukemic blasts in peripheral blood ([2]; 80 mg oral three times daily): 14 days
- Bone Marrow Blast (%) ([2]; day 0 on study drug (baseline)): 91%
- Absolute Peripheral Blast Count (units/uL) ([2]; day 1 on study drug (baseline value), 80 mg oral three times daily): 4800 units/uL
- Absolute Peripheral Blast Count (units/uL) ([2]; day 3 on study drug, 80 mg oral three times daily): 2747 units/uL
- Absolute Peripheral Blast Count (units/uL) ([2]; day 4 on study drug, 80 mg oral three times daily): 250 units/uL
- Absolute Peripheral Blast Count (units/uL) ([2]; day 7 on study drug, 80 mg oral three times daily): 49 units/uL
- Absolute Peripheral Blast Count (units/uL) ([2]; day 9 on study drug, 80 mg oral three times daily): 35 units/uL
- Absolute Peripheral Blast Count (units/uL) ([2]; day 14 on study drug, 80 mg oral three times daily): 0 units/uL
- Absolute Peripheral Blast Count (units/uL) [2, 6]: 0 units/uL
- Bone Marrow Blast (%) [2, 6]: 32%
- Absolute Peripheral Blast Count (units/uL) ([2]; day 28 on study drug, 80 mg oral three times daily): 0 units/uL
- Bone Marrow Blast (%) ([2]; day 35 on study drug, 80 mg oral three times daily): 2%
- Absolute Peripheral Blast Count (units/uL) ([2]; day 37 on study drug, 80 mg oral three times daily): 0 units/uL
- Absolute Peripheral Blast Count (units/uL) ([2]; day 38 on study drug, 80 mg oral three times daily): 0 units/uL
- Absolute Peripheral Blast Count (units/uL) ([2]; day 39 on study drug, 80 mg oral three times daily): 0 units/uL
- Absolute Peripheral Blast Count (units/uL) ([2]; day 40 on study drug, 80 mg oral three times daily): 0 units/uL
- Absolute Peripheral Blast Count (units/uL) ([2]; day 41 on study drug, 80 mg oral three times daily): 0 units/uL
- Absolute Peripheral Blast Count (units/uL) ([2]; day 42 on study drug, 80 mg oral three times daily): 0 units/uL
- Absolute Peripheral Blast Count (units/uL) ([2]; day 43 on study drug, 80 mg oral three times daily): 0 units/uL
- Absolute Peripheral Blast Count (units/uL) ([2]; day 45 on study drug, 80 mg oral three times daily): 0 units/uL
- Absolute Peripheral Blast Count (units/uL) ([2]; day 46 on study drug, 80 mg oral three times daily): 0 units/uL
- Absolute Peripheral Blast Count (units/uL) ([2]; day 47 on study drug, 80 mg oral three times daily): 0 units/uL
- Absolute Peripheral Blast Count (units/uL) ([2]; day 48 on study drug, 80 mg oral three times daily): 0 units/uL
- Absolute Peripheral Blast Count (units/uL) ([2]; day 49 on study drug, 80 mg oral three times daily): 0 units/uL
- Absolute Peripheral Blast Count (units/uL) ([2]; day 50 on study drug, 80 mg oral three times daily): 0 units/uL
- Absolute Peripheral Blast Count (units/uL) ([2]; day 51 on study drug, 80 mg oral three times daily): 0 units/uL
- Absolute Peripheral Blast Count (units/uL) ([2]; day 52 on study drug, 80 mg oral three times daily): 0 units/uL
- Bone Marrow Blast (%) ([2]; day 65 on study drug, 80 mg oral three times daily): 4-5%
- Absolute Peripheral Blast Count (units/uL) ([2]; day 69 on study drug, 80 mg oral three times daily): 0 units/uL
- Clinical response (bone marrow biopsy) ([2]; over the course of 65 days of therapy, 80 mg oral three times daily): complete remission with incomplete blood count recovery (CRi)
- Days of therapy to complete clearance of malignant leukemic blasts in peripheral blood ([3]; 100 mg three times daily): 15 days
- Clinical response (bone marrow biopsy) ([3]; after 33 days of therapy, 100 mg three times daily): complete remission with incomplete blood count recovery (CRi)
- Absolute Peripheral Blast Count (units/uL) ([3]; day 0 on study drug (baseline)): 196 units/uL
- Bone Marrow Blast (%) ([3]; day 0 on study drug (baseline)): 60-70%
- Absolute Peripheral Blast Count (units/uL) ([3]; day 14 on study drug, 100 mg three times daily): 14 units/uL
- Absolute Peripheral Blast Count (units/uL) [3, 7]: 0 units/uL
- Absolute Peripheral Blast Count (units/uL) ([3]; day 16 on study drug, 100 mg three times daily): 0 units/uL
- Absolute Peripheral Blast Count (units/uL) ([3]; day 17 on study drug, 100 mg three times daily): 0 units/uL
- Absolute Peripheral Blast Count (units/uL) ([3]; day 18 on study drug, 100 mg three times daily): 0 units/uL
- Bone Marrow Blast (%) ([3]; day 27 on study drug, 100 mg three times daily): 10%
- Absolute Peripheral Blast Count (units/uL) ([3]; day 28 on study drug, 100 mg three times daily): 0 units/uL
- Absolute Peripheral Blast Count (units/uL) [3, 8]: 0 units/uL
- Absolute Peripheral Blast Count (units/uL) ([3]; day 31 on study drug, 100 mg three times daily): 0 units/uL
- Absolute Peripheral Blast Count (units/uL) ([3]; day 32 on study drug, 100 mg three times daily): 0 units/uL
- Absolute Peripheral Blast Count (units/uL) [3, 9]: 0 units/uL
- Bone Marrow Blast (%) [3, 9]: 5%
- Absolute Peripheral Blast Count (units/uL) ([3]; day 39 on study drug, 100 mg three times daily): 0 units/uL
- Absolute Peripheral Blast Count (units/uL) ([3]; day 42 on study drug, 100 mg three times daily): 0 units/uL
- Absolute Peripheral Blast Count (units/uL) ([3]; day 44 on study drug, 100 mg three times daily): 0 units/uL
- Absolute Peripheral Blast Count (units/uL) ([3]; day 45 on study drug, 100 mg three times daily): 0 units/uL
- Absolute Peripheral Blast Count (units/uL) ([3]; day 46 on study drug, 100 mg three times daily): 0 units/uL
- Absolute Peripheral Blast Count (units/uL) ([3]; day 47 on study drug, 100 mg three times daily): 0 units/uL
- Absolute Peripheral Blast Count (units/uL) ([3]; day 48 on study drug, 100 mg three times daily): 0 units/uL
- Absolute Peripheral Blast Count (units/uL) ([3]; day 49 on study drug, 100 mg three times daily): 0 units/uL
- Absolute Peripheral Blast Count (units/uL) ([3]; day 50 on study drug, 100 mg three times daily): 0 units/uL
- Absolute Peripheral Blast Count (units/uL) ([3]; day 51 on study drug, 100 mg three times daily): 0 units/uL
- Absolute Peripheral Blast Count (units/uL) ([3]; day 52 on study drug, 100 mg three times daily): 0 units/uL
- Days of therapy to complete clearance of malignant leukemic blasts in peripheral blood ([4]; 100 mg three times daily): 15 days
- Clinical response (bone marrow biopsy) ([4]; after 29 days of therapy, 100 mg three times daily): complete remission with incomplete blood count recovery (CRi)
- Absolute Peripheral Blast Count (cells/uL) ([4]; day 0 on study drug (baseline)): 198 cells/uL
- Bone Marrow Blast (%) ([4]; day 0 on study drug (baseline)): 76%
- Absolute Peripheral Blast Count (cells/uL) ([4]; day 1 on study drug, 100 mg three times daily): 130 cells/uL
- Absolute Peripheral Blast Count (cells/uL) ([4]; day 8 on study drug, 100 mg three times daily): 19 cells/uL
- Absolute Peripheral Blast Count (cells/uL) [4, 7]: 0 cells/uL
- Absolute Peripheral Blast Count (cells/uL) ([4]; day 22 on study drug, 100 mg three times daily): 0 cells/uL
- Absolute Peripheral Blast Count (cells/uL) [4, 8]: 0 cells/uL
- Bone Marrow Blast (%) [4, 8]: 1%
- Absolute Peripheral Blast Count (cells/uL) [4, 10]: 0 cells/uL
- Bone Marrow Blast (%) [4, 10]: 1%

Structure (SMILES): CNC(=O)c1cc(Oc2ccc(NC(=O)Nc3ccc(Cl)c(C(F)(F)F)c3)cc2)ccn1 [sorafenib]
- Effect on bone marrow (BM) blasts [5]: only modest BM blast reductions
- Effect on peripheral blood (PB) blasts [5]: effective in clearing PB blasts
